Measured values: patent EP0719267B1, “SECOND MESSENGER CELL SIGNALING INHIBITORS” (CELL THERAPEUTICS, INC., priority 1993, dated 1994)

Key:
[1] = tested on: murine thymocyte proliferation; assay: Thymocyte proliferation stimulated by Con A and IL-1α; assay type: cell-based; conditions: Mus musculus, 2 h, added two hours prior to Con A and IL-1α
Description: In a first part of this example, compounds nos. 30, 33, 28 and 27 (see above for chemical names and structures) show effective inhibition of murine thymocyte proliferation stimulated by Con A and interleukin 1 alpha (IL-1α). Compounds nos. 30, 33, 28 and 27 were added to cell cultures two hours prior to activation with Con A and IL-1α in a thymocyte co-stimulation procedure akin to that discussed in example 21. […] IC50 values determined for each inventive compound tested are as follow: compound no. […] Background counts in the assay were less than 200 cpm.

[2] = tested on: murine splenocyte proliferation; assay: Splenocyte (B cell) proliferation stimulated by anti-mu/anti-IgM and IL-4; assay type: cell-based; conditions: Mus musculus, anti-mu and IL-4 12.5 ng/ml
Description: This example illustrates inhibitive effects of compounds nos. 27 and 28 on murine splenocyte proliferation stimulated by anti-mu ([…]) and interleukin-4 (IL-4, 12.5 ng/ml). This in vitro assay, described above, is indicative of immune-suppressive/autoimmune treatment assay emphasizing humoral or B cell immune response. The inventive compound was added to the cells at the doses indicated two hours prior to activation with anti-mu and IL-4. Both compounds nos. 27 and 28 inhibited splenocyte proliferation in a dose-response manner. IC50 values for compounds nos. Background counts were less than 200 cpm.
In figure 57, results shown illustrate that inventive compound no. 45 inhibits B cell proliferation. Murine splenocytes were stimulated with anti-IgM antibodies (10 µg/ml) and murine IL-4 (12.5 ng/ml). Cells were pulsed with ^3HTdR at 44 hours, harvested 4 hours later, and the incorporation of ^3H-TdR was determined by liquid scintillation.

[3] = tested on: proliferative PMBC response to allogeneic stimulation; assay: Two-way mixed lymphocyte reaction; assay type: cell-based
Source text: This example illustrates therapeutic potential for various autoimmune and inflammatory diseases of the inventive compounds by comparing potency (inhibitive activity) with cytotoxicity data obtained using the following indicative assay procedures. In a mixed lymphocyte reaction assay of compounds nos. […] Compounds nos. […] 2A and 2B. Both compounds nos. […] 2C.
Compound no. […] Compound no.

CMV promoter activity = assay: microbe, parasite or virus in culture; assay type: cell-based; conditions: transformed (adenovirus) cells
Source text: This example illustrates data of proliferative activity of various inventive compounds for inducing CMV promoter activity. The CMV promoter assay measures gene transcription and translation activity wherein any active compounds will have cytotoxic activity for inhibiting cellular protein synthesis in transformed (adenovirus) cells. Compound no. […]

[4] = tested on: murine thymocyte proliferation; assay: Thymocyte proliferation co-stimulated by ConA and IL-2 (tritiated thymidine); assay type: cell-based, Balb/C mice
Description: (§1) ConA, used to activate CD3, induces T-cell proliferation and differentiation. Thymuses, obtained from normal, female Balb/C mice, were dissociated and plated into 96-well plates at a density of 2 x 10^5 cells/well. ConA (0.25 mg/ml) and IL-2 (15 U/ml) were added to the wells. The cells were incubated for 4 days at 37°C. On day 4, the cells were pulsed with tritiated thymidine and incubated for an additional 4 hours. The amount of tritiated thymidine dye incorporated by the harvested cells was determined in a liquid scintillation counter. Drug doses (shown in figs. 1A and 1B) were added two hours prior to ConA and IL-2 activation.
as §1, with “Thymuses,” for “ConA, used to activate CD3, induces T-cell proliferation and differentiation. Thymuses,”, “37 °C.” for “37°C.”, “Doses” for “Drug doses”, “26A, 26B” for “1A”, “26C)” for “1B)”
In another in vitro protocol, thymocyte proliferation was induced by sub-mitogenic doses of Con A (0.25 µg/ml) and IL-2 (20 ng/ml). Cells were stimulated for 96 hours, prior to addition of ^3H-TdR for 4 hours. The cells were harvested and incorporation of ^3H-TdR was determined.
45 on co-stimulated thymocyte proliferation. In an assay procedure, murine thymocytes were stimulated with ConA and IL-2 with 1 µM compound no. 45 added either 1 hour prior to IL-2 (-1), simultaneous with IL-2 (0) or at various times following IL-2 addition (1-92 hour). At 92 hours the thymocytes were pulsed with ^3H-TdR, harvested and counted by scintillation 4 hours later.

[5] = tested on: mixed lymphocyte reaction assay culture; assay: Cell percent viability in mixed lymphocyte reaction culture; assay type: cell-based; conditions: 100 µM, six days of cell culture
Description: Cell percent viability in mixed lymphocyte reaction assay culture was determined after six days of cell culture. […] Control cells unexposed to drugs are generally 78 to 85% viable under these culture conditions. In this assay, all inventive compounds were present at 100 µM concentrations, generally well above corresponding IC50 values in this assay (see fig. 2D). […] Compounds nos.

Human stromal cells = assay: Stromal cell proliferation in response to PDGF-BB; assay type: cell-based; conditions: 50 ng/ml PDGF-BB
Description: This assay is useful for predicting therapeutic activity for preventing or treating restenosis, atherosclerosis and coronary artery disease. Human stromal cells were starved in serum-free media for one day and then stimulated with 50 ng/ml PDGF-BB. Inventive compounds, at various concentrations, were added one hour prior to PDGF stimulation. PDGF and tritiated thymidine were added and the cells allowed to incubate for one day, following addition of the PDGF and thymidine. 24 Hours later, the cells were harvested and counted by liquid scintillation counting. Results for compounds nos. Background counts (i.e., starved cells) were approximately 1% of control levels. […] 30, 28, 29, 32 and 31, respectively.

[6] = tested on: PDGF/IL-1 co-stimulation, proliferation; assay: PDGF/IL-1 co-stimulation proliferation assay; assay type: cell-based; conditions: fig. 14
Source text: The PDGF/IL-1 assay is useful in measuring in vitro activity, indicative of therapeutic potential for treating or preventing restenosis and reperfusion. Figure 14 reports IC50 bar graph results for a group of inventive compounds nos. 27, 28, 32, 30, 31, 32 and 34. In this predictive, in vitro model, compounds nos.

Saccharomyces cervisiae = assay: Yeast growth assay (anti-yeast and anti-fungal activity); assay type: cell-based; conditions: 100 µM
Description: This example illustrates the effects of a reference compound "X", and inventive compounds nos. 29, 30, 31, 32 and 33 (see above for names and structures) on yeast growth (Saccharomyces cervisiae)--using 100 µM concentrations--as compared with yeast activity in the absence of any compound additive (control). This assay measured anti-yeast and anti-fungal activity of the inventive compounds tested.

mast cell degranulation = assay: Serotonin release assay for inhibition of mast cell degranulation; assay type: cell-based
Source text: This assay provides an in vitro model for an allergy and asthma therapeutic product. […]

[7] = tested on: THP-1 cell adhesion to IL-1-activated HUVEC; assay: THP-1 cell adhesion to activated HUVEC; assay type: cell-based, human; conditions: IL-1 (10 ng/ml), 8 hours
Description: This example illustrates inhibitive activity of compounds nos. 50 and 57 on THP-1 cell adhesion to IL-1-activated HUVEC. In an investigative assay, HUVEC were stimulated with IL-1 (10 ng/ml), both in the absence and presence of varying concentrations of drugs for 8 hours in a 96-well microtiter plate. In the wellplate, human monocytic leukemia cell line THP-1 cells were added at 50,000 cells per well. The THP-1 cells were pre-incubated with BCECF, a fluorescence dye that can be used to measure cell number using a fluorescence plate reader. After 10 minutes at 37 °C, the microtiter plate was inverted and spun at 900 rpm. The remaining adhering THP-1 cells were then analyzed.
Inventive compound no. […] HUVEC were stimulated with 20 ng/ml IL-1β or 15 ng/ml TNFα for 6 hours. Fluorescence labeled (BCECF-AM) THP-1 cells were allowed to adhere to the HUVEC for 20 minutes, washed once and the amount of fluorescence remaining analyzed on a fluorescence plate reader. The results, reported in figures 62A and 62B (TNFα or IL-1β, respectively), show inhibition of THP-1 adhesion to HUVEC.
Figures 72A and 72B illustrate that inventive compound no. 58 inhibited THP-1 cell adhesion to either TNF or IL-1-stimulated HUVEC, respectively. Procedurally, HUVEC were stimulated with TNF or IL-1 for 8 hours and THP-1 cells added for 20 minutes. The HUVEC were then washed and analyzed for adherence. Inventive compound no. 58 inhibited adhesion of THP-1 cells to HUVEC with an IC50 of approximately 1 µM for both TNF and IL-1.

mouse thymocytes = assay: Con A priming followed by IL-2 restimulation of thymocytes; assay type: cell-based
Description: In a proliferation assay, mouse thymocytes were pre-incubated overnight with Con A (a "priming step"), washed, and restimulated with IL-2 in […] of inventive compounds. On day 4, the cells were pulsed with tritiated thymidine and allowed to incubate for an additional 4 hours. The cells were harvested and the amount of tritiated thymidine incorporated by the harvested cells was determined in a liquid scintillation counter. […] 3.
On day 4, the cells were pulsed with tritiated thymidine and allowed to incubate for an additional 4 hours. The cells were harvested and the amount of incorporated tritiated thymidine was determined in a liquid scintillation counter.

[8] = tested on: murine cytotoxic T-cell line, CT6; assay: Cytokine-induced proliferation of the cytotoxic T-cell line CT6 / CT-6.1; assay type: cell-based; conditions: murine IL-2 (15 U/ml), figs. 21C and 21D
Description: Another assay in this example was used to determine inhibitive activity of the inventive compounds on direct IL-2-induced proliferation in a murine cytotoxic T-cell line, CT6. The CT6 cell line is an IL-2-dependent cell line. IL-2 was removed from the medium for 24 hours prior to stimulation. […] 49, 50, 45, 43 or 41 were added at various concentrations. The cells were stimulated with IL-2 and amount of tritiated thymidine dye incorporated was measured 48 hours later.
In another related assay, inhibitory effects on CT6 cell proliferation is examined. CT6 cells are a murine IL-2 dependent, cytotoxic T cell line that proliferate in response to murine IL-2 (15 U/ml).
CT-6.1 cells were starved overnight and stimulated with IL-2 (20 ng/ml). Twenty hours later, cells were labeled for 4 hours with ^3H-TdR and counted by liquid scintillation.
CT6.1 cells were cultured with IL-2 with or without the addition of inventive compound no. 45 (2 µM) and viable cells counted for up to 8 days. On day 4, two cultures previously incubated with compound no. 45, were washed and recultured with fresh IL-2 with or without compound no. 45 (2 µM).
Procedurally, CT-6.1 cells were starved overnight and stimulated with either IL-2 (20 ng/ml), IL-4 (50 ng/ml) or IL-7 (25 ng/ml). ^3H-TdR was added at 20 hours, cells were harvested 4 hours later, and the incorporation of ^3H-TdR was determined.

**Q.** Which results are given for `CCCCCCCCNCC(O)CCCCn1c(=O)c2c(ncn2C)n(C)c1=O` (stereo not drawn) [compound no. 28, 1-(5-hydroxy-6-(N-octyl)aminohexyl)-3,7-dimethylxanthine]?
**A.** IC50 [1]: 4.6 µM; IC50 [2]: 5.2 µM; immune suppression activity ([3]; fig. 2D): the most potent compound of those assayed; IC50 (CMV promoter activity): 50 µM; inhibition of thymocyte proliferation ([4]; ConA and IL-2 co-stimulation): the most potent immune-suppressive effects; cytotoxicity (percent viability) [5]: the most cytotoxic at 100 µM; IC50 (Human stromal cells): 3.2 µM; inhibitive activity [6]: potent inhibitive activity

**Q.** Which results are given for `CCCCCCN(CCCCCC)CC(O)CCCCn1c(=O)c2c(ncn2C)n(C)c1=O` (stereo not drawn) [compound no. 33, 1-(5-hydroxy-6-(N,N-dihexyl)aminohexyl)-3,7-dimethylxanthine]?
**A.** IC50 [1]: 8.6 µM; IC50 (CMV promoter activity): 100 µM; yeast-growth inhibitive activity (Saccharomyces cervisiae): showed yeast-growth inhibitive activity

**Q.** What does the source list for `Cn1cnc2c1c(=O)n(CCCCC(O)CNCc1ccccc1)c(=O)n2C` (stereo not drawn) [compound no. 13, 1-(5-hydroxy-6-(N-benzyl)aminohexyl)-3,7-dimethylxanthine]?
**A.** IC50 ([3]; Lymphocyte, figs. 2A-2C): 55 µM; IC50 (CMV promoter activity): > 500 µM; inhibition at 100 µM (mast cell degranulation; Mast cell, Concentration 100 µM): 28%; cytotoxicity (percent viability) [5]: little or no cytotoxicity

**Q.** For `Cn1cnc2c1c(=O)n(CCCCCCCCCC(O)CNCc1ccc(N)cc1)c(=O)n2C` (stereo not drawn) [compound 57, 1-[11-(4-Aminobenzylamino)-10-hydroxyundecyl]-3,7-dimethylxanthine], which “inhibition of THP-1 adhesion” value [7] is on record?
**A.** significantly inhibited THP-1 adhesion, even at low concentratations

**Q.** For `CCCCCCCCNCC(O)CCCCCCCn1c(=O)c2c(ncn2C)n(C)c1=O` (stereo not drawn) [compound no. 35, 1-(8-hydroxy-9-(N-octyl)aminononyl)-3,7-dimethylxanthine], which “inhibition of thymocyte proliferation, compound added with IL-2” value (mouse thymocytes; Con A pre-treated cells, 1µM) is on record?
**A.** dramatically inhibited thymocyte proliferation

**Q.** And the “proliferation in response to IL-2 after compound present during Con A priming” value (mouse thymocytes; compound during overnight Con A incubation, IL-2 without compound)?
**A.** normal thymocyte proliferation in response to IL-2 stimulation

**Q.** And the “% Inhibition” value (mast cell degranulation; Concentration 50 µM)?
**A.** too toxic

**Q.** And the “IC50 values (range in words)” value ([4]; figs. 21A and 21B)?
**A.** low micromolar

**Q.** And the “inhibition of IL-2-induced proliferation” value [8]?
**A.** exhibited no activity in this assay
